The source made the active and inactive calls.

For assay [1], the target named is Troponin, cardiac muscle (Homo sapiens, UniProt P19429+P45379+P63316). The assay is described as follows: inhibitors of cardiac thin filament calcium sensitivity, dose response, biochemical, fluorescence, cardiac regulated thin filaments, triplicate IC50 (AID 504742). Type of assay: protein-complex assay.
For assay [2], the target named is T1, ORF 73 (Human herpesvirus 8, UniProt O40947).
T1 sequence (O40947 whole entry): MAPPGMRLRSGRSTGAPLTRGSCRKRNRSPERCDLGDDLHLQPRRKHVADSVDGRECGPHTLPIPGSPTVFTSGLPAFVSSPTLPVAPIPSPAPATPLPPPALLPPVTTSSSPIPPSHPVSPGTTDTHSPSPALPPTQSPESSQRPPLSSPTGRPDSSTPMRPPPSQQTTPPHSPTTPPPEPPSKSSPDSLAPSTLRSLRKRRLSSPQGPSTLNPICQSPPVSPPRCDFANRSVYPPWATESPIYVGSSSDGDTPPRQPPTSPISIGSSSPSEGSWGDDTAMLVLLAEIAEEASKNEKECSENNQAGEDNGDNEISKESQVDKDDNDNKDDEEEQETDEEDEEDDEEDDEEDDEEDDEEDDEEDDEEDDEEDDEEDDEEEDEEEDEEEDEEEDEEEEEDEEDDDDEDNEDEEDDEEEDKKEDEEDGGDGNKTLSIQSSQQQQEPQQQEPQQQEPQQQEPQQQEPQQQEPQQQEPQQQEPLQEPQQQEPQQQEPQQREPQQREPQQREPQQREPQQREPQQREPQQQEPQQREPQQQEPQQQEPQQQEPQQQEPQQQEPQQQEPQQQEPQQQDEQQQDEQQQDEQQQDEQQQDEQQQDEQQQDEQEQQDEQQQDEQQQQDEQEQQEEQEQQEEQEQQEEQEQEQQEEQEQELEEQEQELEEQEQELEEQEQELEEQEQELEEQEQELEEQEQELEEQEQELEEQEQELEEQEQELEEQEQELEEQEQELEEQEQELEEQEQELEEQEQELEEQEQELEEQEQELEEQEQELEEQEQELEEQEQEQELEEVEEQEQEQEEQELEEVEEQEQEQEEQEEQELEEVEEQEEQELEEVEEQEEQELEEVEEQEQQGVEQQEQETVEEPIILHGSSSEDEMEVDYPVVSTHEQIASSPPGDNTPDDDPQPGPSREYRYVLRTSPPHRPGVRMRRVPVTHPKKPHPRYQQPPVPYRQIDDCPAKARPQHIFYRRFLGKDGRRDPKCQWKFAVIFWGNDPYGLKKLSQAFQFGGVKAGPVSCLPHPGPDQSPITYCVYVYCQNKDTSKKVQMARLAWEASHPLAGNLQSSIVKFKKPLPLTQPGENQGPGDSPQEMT
Briefly: inhibitors of C-LANA binding to LBS DNA, dose response, biochemical, fluorescence polarization, cherry-picked samples (AID 504725).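 Note: fluorescence polarization of a labeled DNA duplex reporting LANA DNA binding; potency is for inhibitors that block LANA binding to the DNA.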 Further details: species or system Human gammaherpesvirus 8. In general terms: Polarisation of emitted light reports the rotation of a fluorescent probe.

Assay [3] has as its target Ribosomal protein S6 kinase alpha-3 (Homo sapiens, UniProt P51812). Type of assay: functional.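 Note: measured within a kinome-wide profiling panel.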
The target of assay [4] is T2, Caspase-7 (Homo sapiens, UniProt P55210).
T2 sequence (P55210 whole entry): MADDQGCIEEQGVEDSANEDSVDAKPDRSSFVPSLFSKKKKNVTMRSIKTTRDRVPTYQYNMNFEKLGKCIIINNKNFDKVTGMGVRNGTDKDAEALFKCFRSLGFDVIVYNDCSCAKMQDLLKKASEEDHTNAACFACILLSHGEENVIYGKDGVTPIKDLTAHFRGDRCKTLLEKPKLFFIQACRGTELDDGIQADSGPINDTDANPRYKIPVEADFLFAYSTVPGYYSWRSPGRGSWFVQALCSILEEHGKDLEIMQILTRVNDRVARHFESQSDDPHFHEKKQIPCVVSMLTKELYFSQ
The assay is described as follows: human caspase-7 inhibitors, dose response, selectivity assay for caspase-6 inhibitor project, biochemical, DEVD-R110 fluorescence, cherry-pick (AID 743295). It is filed as […].

Assay [5] in a line: growth suppression of beta-catenin-knockout colon cells, dose response, cell-based, HCT116, human colon tumor (AID 1045).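 Note: HCT116 colon tumor cells with beta catenin knocked out; cells exposed to compound for 60 hours.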 It is filed as functional.
A short description of assay [6]: HeLa cell cytotoxicity, dose response, cytotoxicity control for MgcRacGAP inhibitor project (AID 624300). It is filed as functional.
The target in assay [7] is T3, Replicative DNA helicase DnaB (Mycobacterium tuberculosis, UniProt P9WMR3).
T3 sequence (P9WMR3 whole entry): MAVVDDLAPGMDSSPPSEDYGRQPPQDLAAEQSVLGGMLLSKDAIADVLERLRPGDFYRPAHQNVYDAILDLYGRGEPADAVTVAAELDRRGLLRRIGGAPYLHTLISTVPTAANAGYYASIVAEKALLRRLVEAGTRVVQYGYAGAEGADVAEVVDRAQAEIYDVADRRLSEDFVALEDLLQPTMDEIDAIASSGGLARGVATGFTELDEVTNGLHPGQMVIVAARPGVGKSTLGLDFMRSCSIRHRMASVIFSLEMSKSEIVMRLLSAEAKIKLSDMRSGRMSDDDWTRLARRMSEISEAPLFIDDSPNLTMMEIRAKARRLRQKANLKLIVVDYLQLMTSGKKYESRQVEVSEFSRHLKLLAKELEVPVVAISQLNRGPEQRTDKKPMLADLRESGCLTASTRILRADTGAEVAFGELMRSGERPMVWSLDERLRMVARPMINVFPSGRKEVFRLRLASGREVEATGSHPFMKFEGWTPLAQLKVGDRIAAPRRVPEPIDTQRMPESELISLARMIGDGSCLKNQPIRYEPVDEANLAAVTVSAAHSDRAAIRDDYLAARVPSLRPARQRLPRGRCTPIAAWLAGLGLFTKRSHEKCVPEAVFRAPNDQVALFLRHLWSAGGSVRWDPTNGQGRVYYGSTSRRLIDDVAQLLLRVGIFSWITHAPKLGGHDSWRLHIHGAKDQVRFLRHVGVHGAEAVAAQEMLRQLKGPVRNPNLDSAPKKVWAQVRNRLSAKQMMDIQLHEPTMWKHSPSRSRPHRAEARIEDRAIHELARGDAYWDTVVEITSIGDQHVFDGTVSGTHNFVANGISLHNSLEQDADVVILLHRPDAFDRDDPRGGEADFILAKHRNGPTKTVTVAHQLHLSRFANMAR
Briefly: DnaB intein splicing inhibitors, dose response, biochemical, cell-free fluorescence (AID 449749). Type of assay: functional.

The target of assay [8] is T4, Caspase-3 (Homo sapiens, UniProt P42574).
T4 sequence (P42574 whole entry): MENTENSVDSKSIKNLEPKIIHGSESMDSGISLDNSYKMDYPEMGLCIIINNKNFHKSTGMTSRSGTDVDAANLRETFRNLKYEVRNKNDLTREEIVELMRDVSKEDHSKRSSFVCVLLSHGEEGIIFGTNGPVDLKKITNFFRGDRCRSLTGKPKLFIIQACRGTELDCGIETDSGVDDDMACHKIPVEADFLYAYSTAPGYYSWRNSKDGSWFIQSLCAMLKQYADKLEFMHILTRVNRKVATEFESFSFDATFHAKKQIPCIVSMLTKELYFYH
The assay is described as follows: Dose-response confirmation of uHTS inhibitor hits of Sentrin-Specific Protease 8 in a Caspase-3 Fluorescence assay. It is filed as functional.

For assay [9], the target named is Serine/threonine-protein phosphatase (Homo sapiens, UniProt Q9BPW0). Briefly: PP5 phosphatase inhibitors, dose response, biochemical, fluorescence (AID 2395).

As for `O=C(O)c1ccc2c(c1)[C@@H]1C=CC[C@@H]1[C@H](c1ccccn1)N2`, the IC50 in assay [1] was > 71.5 µM (inactive). The AC50 in assay [2] was 21.7 µM (active). For the compound `O=C1Nc2cc(-c3ccc(O)cc3)ccc2C1=Cc1ccc[nH]1`, the Ki in assay [3] is 0.0316 µM (active).

In the case of `Oc1nc(Nc2ccc(F)cc2)cc2ccccc12`, in assay [4], the concentration at half-maximal activity (AC50) is 2.11 µM (active).

On to `CCN(CC)CCOc1ccc2c(c1)C(=NNC(=O)c1ccccn1)c1cc(OCCN(CC)CC)ccc1-2`, for which, in assay [5], the EC50 was 2.17 µM (active). The 50% cytotoxic concentration (CC50) in assay [6] is 31.7 µM (active). `O=C(NC1=C(Nc2ccc(F)cc2)C(=O)c2ccccc2C1=O)c1ccc(Cl)cc1`: the AC50 in assay [7] was 11.8 µM (active).

For `CN(C)c1cc(N/N=C\c2ccccc2)nc(N(C)C)n1`, the half-inhibitory concentration (IC50) is 50.7 µM (active) in [8] and 6.1 µM (active) in assay [9].

For orientation: IC50 means the midpoint of a concentration-inhibition curve. As a reminder, the AC50 is the midpoint of the concentration-response curve, whichever way the signal moves. For orientation: Ki means the dissociation constant of the complex between target and ligand, obtained from inhibition or displacement. Broadly, the EC50 is the concentration needed to bring the measured effect to its halfway point. The term CC50 denotes the concentration giving 50% cytotoxicity.

Values taken from ChEMBL document CHEMBL1201862, “PubChem BioAssay data set” (2004).
